# Experimental data taken from patent US10858360B2, “Tricyclic gyrase inhibitors” (priority 2011, dated 2020).
# Assays:
# S. aureus ATCC 13709 = assay: MIC, S. aureus ATCC 13709 (Alamar Blue broth microdilution); type: cell-based; details: Alamar Blue read after overnight incubation at 35° C.; for MIC Sa: S. aureus; for MIC: Staphylococcus aureus, ATCC13709, S. aureus
# E. coli ATCC 25922 = assay: MIC, E. coli ATCC 25922; type: cell-based; details: Alamar Blue read after overnight incubation at 35° C.; for MIC Ec: E. coli; for MIC: Escherichia coli, ATCC25922, E. coli
Structure (SMILES),MIC Sa (S. aureus ATCC 13709) [µg/mL],MIC Ec (E. coli ATCC 25922) [µg/mL],MIC (S. aureus ATCC 13709) [µg/mL],MIC (E. coli ATCC 25922) [µg/mL]
CNc1cc(F)cc2c1[nH]c1nc(Oc3cnc(C)nc3)nc(N3CC4CC4(CN)C3)c12 (stereo not shown) [4.098],≤0.5,1,–,–
CNc1cc(F)cc2c1[nH]c1nc(Oc3cncnc3)nc(N3CCC(C4(N)CC4)C3)c12 (stereo not shown) [4.017],–,–,≤ 0.5,≤ 0.5
CNc1cc(F)cc2c1[nH]c1nc(Oc3ccc(C(C)=O)nc3)nc(N3CC4CCNC4C3)c12 (stereo not shown) [4.309],≤0.5,≤0.5,–,–
CNc1cccc2c1[nH]c1nc(Oc3cnc4c(c3)ncn4C)nc(N3CC4C(N)C4C3)c12 (stereo not shown) [3.36],–,–,≤ 0.5,2
CNc1cc(F)cc2c1[nH]c1nc(Oc3cnc4c(c3)ncn4C)nc(N3CC4C[C@@H](N)C4C3)c12 (stereo partly shown) [4.227],–,–,≤ 0.5,1
CNc1cc(F)cc2c1[nH]c1nc(Oc3cnc(C)nc3)nc(N3CC4CCC(N)CC4C3)c12 (stereo not shown) [4.093],≤0.5,4,–,–
CNc1cc(F)cc2c1[nH]c1nc(Oc3cnc4cccnc4c3)nc(N3CC4CC4(N)C3)c12 (stereo not shown) [4.036],–,–,≤ 0.5,≤ 0.5
COc1cccc2c1[nH]c1nc(Oc3cncnc3)nc(N3CC4C(N)C4C3)c12 (stereo not shown) [2.13],2,64,–,–
CNc1cc(F)cc2c1[nH]c1nc(Oc3cncnc3)nc(N3CCC(N)C3)c12 (stereo not shown) [4.007],≤0.5,≤0.5,–,–
CNc1cccc2c1[nH]c1nc(Sc3cnc4ccc[n+]([O-])c4c3)nc(N3CC(N)C4(CC4)C3)c12 (stereo not shown) [1.40],–,–,≤ 0.5,1
CNc1cc(F)cc2c1[nH]c1nc(Oc3cnc(C)nc3)nc(N3CC(N)C(C(=O)OC)C3)c12 (stereo not shown) [4.437],–,–,≤ 0.5,1
CNc1cc(F)cc2c1[nH]c1nc(Oc3ccc(C4CC4)nc3)nc(N3CC(N)C4(CC4)C3)c12 (stereo not shown) [4.347],≤0.5,1,–,–
CNc1cc(F)cc2c1[nH]c1nc(Oc3cnc(N4CC(O)C4)nc3)nc(N3CC4C(N)C4C3)c12 (stereo not shown) [4.298],–,–,≤ 0.5,2
CNc1cc(F)cc2c1[nH]c1nc(Oc3cncnc3)nc(N3CC4CCC(N)C3C4)c12 (stereo not shown) [4.032],–,–,≤ 0.5,2
CNc1cccc2c1[nH]c1nc(Sc3cnc4ccc[n+]([O-])c4c3)nc(N3CC(O)C3)c12 [1.17],–,–,≤ 0.5,> 64
CNc1cc(F)cc2c1[nH]c1nc(Oc3cnc(C)nc3)nc(N3CCCC(N)CC3)c12 (stereo not shown) [4.071],–,–,≤ 0.5,2
CNc1cc(F)cc2c1[nH]c1nc(Oc3ccc4cncnc4c3)nc(N3CC4[C@H](N)C[C@]4(C)C3)c12 (stereo partly shown) [4.366],–,–,≤ 0.5,1
CNc1cc(F)cc2c1[nH]c1nc(Oc3cnc(C)nc3)nc(-c3cc(CN)ccc3F)c12 [4.421],–,–,2,8
CNc1cccc2c1[nH]c1nc(Oc3cnc(C)nc3)nc(N3C[C@H](N)C4(CC4)C3)c12 [3.49],–,–,≤ 0.5,≤ 0.5
CNc1cc(F)cc2c1[nH]c1nc(Oc3cnc(N)nc3)nc(N3CC4C[C@@H](N)C4C3)c12 (stereo partly shown) [4.190],–,–,≤ 0.5,1
CNc1cc(F)cc2c1[nH]c1nc(Oc3ccc(C#N)nc3)nc(N3CC4CCNC4C3)c12 (stereo not shown) [4.330],≤0.5,≤0.5,–,–
CNc1cccc2c1[nH]c1nc(Oc3cncc(C#N)c3)nc(N3C[C@@H](N)C4(CC4)C3)c12 [3.44],–,–,8,16
CNc1cc(F)cc2c1[nH]c1nc(Oc3cncc(SC)c3)nc(N3C[C@H](N)C4(CC4)C3)c12 [4.354],–,–,≤ 0.5,1
CNc1cccc2c1[nH]c1nc(Oc3cncc(C#N)c3)nc(N3CC4C(N)C4C3)c12 (stereo not shown) [3.27],–,–,1,4

Structure (SMILES),MIC Sa (S. aureus ATCC 13709) [µg/mL],MIC Ec (E. coli ATCC 25922) [µg/mL],MIC (S. aureus ATCC 13709) [µg/mL],MIC (E. coli ATCC 25922) [µg/mL]
CNc1cc(F)cc2c1[nH]c1nc(Oc3cnc4ccoc4c3)nc(N3CC4CC(N)C4C3)c12 (stereo not shown) [4.290],–,–,≤ 0.5,≤ 0.5
CNc1cccc2c1[nH]c1nc(Oc3cncc(C#N)c3)nc(N3CC(N)C4(CC4)C3)c12 (stereo not shown) [3.43],–,–,≤ 0.5,1
CNc1cc(F)cc2c1[nH]c1nc(Oc3ccc(C#N)nc3)nc(N3CC4CC(N)C4C3)c12 (stereo not shown) [4.332],≤0.5,≤0.5,–,–
CNc1ncnc2c1[nH]c1nc(Oc3cncc(F)c3)nc(N3CCC4(CC4N)C3)c12 (stereo not shown) [7.07],–,–,16,> 64
CNc1cc(F)cc2c1[nH]c1nc(Oc3cncnc3)nc(N3C4CCC3C(N)C4)c12 (stereo not shown) [4.019],–,–,2,16
CNc1cc(F)cc2c1[nH]c1nc(Oc3cnc(CO)nc3)nc(N3CC4CC3C[C@@H]4N)c12 (stereo partly shown) [4.390],–,–,≤ 0.5,≤ 0.5
CNc1ncc(Oc2nc(N3CC(N)C4(CC4)C3)c3c(n2)[nH]c2c(NC)cc(F)cc23)cn1 (stereo not shown) [4.216],≤0.5,≤0.5,–,–
CNc1cc(F)cc2c1[nH]c1nc(Oc3cnc(N4CCCC4=O)nc3)nc(N3C[C@H](N)C4(CC4)C3)c12 [4.346],–,–,≤ 0.5,4
CNc1cc(F)cc2c1[nH]c1nc(Oc3cnc(C)nc3)nc(N3CC(NC(=O)C(C)NC(=O)C(C)N)C4(CC4)C3)c12 (stereo not shown) [4.145],1,8,–,–
CNc1cc(F)cc2c1[nH]c1nc(Oc3cncnc3)nc(N3C[C@H](N)C[C@H]3C)c12 [4.029],–,–,4,16
CNc1cc(F)cc2c1[nH]c1nc(Oc3cncc(F)c3)nc(N3CC4(CCC4N)C3)c12 (stereo not shown) [4.061],≤0.5,≤0.5,–,–
Nc1cccc2c1[nH]c1nc(Oc3cnc4cccnc4c3)nc(N3CC4C(N)C4C3)c12 (stereo not shown) [2.8],16,>64,–,–
CNc1cc(F)cc2c1[nH]c1nc(Oc3cncnc3)nc(N3CC4CC4(CN)C3)c12 (stereo not shown) [4.027],–,–,≤ 0.5,1
CNc1cc(F)cc2c1[nH]c1nc(Oc3cnc(N4CCOCC4)nc3)nc(N3CCC4(CC4N)C3)c12 (stereo not shown) [4.214],–,–,≤ 0.5,2
CNc1cccc2c1[nH]c1nc(Oc3cncc(C#N)c3)nc(N3CCN(CCN)CC3)c12 [3.55],–,–,64,> 64
CNc1cc(F)cc2c1[nH]c1nc(Oc3cnc(C(C)C)nc3)nc(N3CC4C(N)C4C3)c12 (stereo not shown) [4.232],≤0.5,≤0.5,–,–
CNc1cc(F)cc2c1[nH]c1nc(Oc3cncc(C(N)=O)c3)nc(N3CC4CC(N)C4C3)c12 (stereo not shown) [4.236],–,–,≤ 0.5,≤ 0.5
CNc1cc(F)cc2c1[nH]c1nc(Oc3cnc(C)nc3)nc(N3CCC4(CC3)NC(=O)NC4=O)c12 [4.107],>16,>16,–,–
CNc1cc(F)cc2c1[nH]c1nc(Oc3cnc(C)nc3)nc(N3CCCC(C)(N)C3)c12 (stereo not shown) [4.088],≤0.5,1,–,–
CNc1cc(F)cc2c1[nH]c1nc(Oc3cnc(C)nc3)nc(N3C[C@@H]4CCN[C@@H]4C3)c12 [4.156],–,–,≤ 0.5,≤ 0.5
CNc1cc(F)cc2c1[nH]c1nc(Oc3cnc(C)nc3)nc(N3CC4CCNC4(C)C3)c12 (stereo not shown) [4.116],≤0.5,≤0.5,–,–
CNc1cc(F)cc2c1[nH]c1nc(Oc3cncc(Cl)c3)nc(N3CC4CC3CC4N)c12 (stereo not shown) [4.279],≤0.5,≤0.5,–,–
CNc1cc(F)cc2c1[nH]c1nc(Oc3cnc(C)nc3)nc(N3CCC4(CNC4)C3)c12 [4.125],≤0.5,4,–,–
